Results on 3 compounds are retold here after ChEMBL document CHEMBL1130772, “New nonsteroidal androgen receptor modulators based on 4-(trifluoromethyl)-2(1H)-pyrrolidino[3,2-g] quinolinone” (Bioorg Med Chem Lett, 1998).

The first experiment has as its target T1, Androgen receptor (Homo sapiens, UniProt P10275).
T1 sequence (P10275 whole entry): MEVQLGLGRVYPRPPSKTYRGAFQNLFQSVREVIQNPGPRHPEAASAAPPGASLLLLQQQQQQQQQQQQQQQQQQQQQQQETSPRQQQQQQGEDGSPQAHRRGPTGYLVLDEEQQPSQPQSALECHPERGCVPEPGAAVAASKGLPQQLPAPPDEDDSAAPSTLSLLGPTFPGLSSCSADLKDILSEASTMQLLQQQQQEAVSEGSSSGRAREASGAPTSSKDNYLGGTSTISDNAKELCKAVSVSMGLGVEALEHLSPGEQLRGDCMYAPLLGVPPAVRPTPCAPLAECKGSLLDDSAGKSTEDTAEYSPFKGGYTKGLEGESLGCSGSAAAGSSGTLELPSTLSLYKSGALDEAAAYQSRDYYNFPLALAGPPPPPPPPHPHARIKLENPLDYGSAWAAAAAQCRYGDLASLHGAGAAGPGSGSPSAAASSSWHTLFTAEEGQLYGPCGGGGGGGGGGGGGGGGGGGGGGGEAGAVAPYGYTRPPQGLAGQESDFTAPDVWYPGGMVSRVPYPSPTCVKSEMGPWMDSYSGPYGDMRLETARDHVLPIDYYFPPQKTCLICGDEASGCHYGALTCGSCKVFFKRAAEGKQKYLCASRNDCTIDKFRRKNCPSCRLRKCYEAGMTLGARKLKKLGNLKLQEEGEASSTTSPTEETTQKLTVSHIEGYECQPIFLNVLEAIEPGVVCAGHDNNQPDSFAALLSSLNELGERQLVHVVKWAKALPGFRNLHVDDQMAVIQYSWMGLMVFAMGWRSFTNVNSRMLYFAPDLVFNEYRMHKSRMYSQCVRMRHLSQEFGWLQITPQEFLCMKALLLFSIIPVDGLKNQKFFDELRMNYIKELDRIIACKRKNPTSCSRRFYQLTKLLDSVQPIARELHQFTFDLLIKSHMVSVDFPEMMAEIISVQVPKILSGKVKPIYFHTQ
The experiment is described as follows: Binding affinity against Androgen receptor transfected into COS cells.
Regarding `CC1(C)CCC[C@]2(C)c3cc4c(C(F)(F)F)cc(O)nc4cc3N[C@H]12`, affinity was put at a Ki of 77 nM.

`C[C@H]1CC[C@H]2Nc3cc4c(cc3[C@H]2C1)c(C(F)(F)F)cc(=O)n4C` yielded a Ki of 94 nM.

In turn, `CN1c2cc3c(cc2[C@H]2CCCC[C@H]21)c(C(F)(F)F)cc(=O)n3C` gave a Ki of 10 nM.

Another experiment concerns the target T2, Glucocorticoid receptor (Homo sapiens, UniProt P04150).
T2 sequence (P04150 whole entry): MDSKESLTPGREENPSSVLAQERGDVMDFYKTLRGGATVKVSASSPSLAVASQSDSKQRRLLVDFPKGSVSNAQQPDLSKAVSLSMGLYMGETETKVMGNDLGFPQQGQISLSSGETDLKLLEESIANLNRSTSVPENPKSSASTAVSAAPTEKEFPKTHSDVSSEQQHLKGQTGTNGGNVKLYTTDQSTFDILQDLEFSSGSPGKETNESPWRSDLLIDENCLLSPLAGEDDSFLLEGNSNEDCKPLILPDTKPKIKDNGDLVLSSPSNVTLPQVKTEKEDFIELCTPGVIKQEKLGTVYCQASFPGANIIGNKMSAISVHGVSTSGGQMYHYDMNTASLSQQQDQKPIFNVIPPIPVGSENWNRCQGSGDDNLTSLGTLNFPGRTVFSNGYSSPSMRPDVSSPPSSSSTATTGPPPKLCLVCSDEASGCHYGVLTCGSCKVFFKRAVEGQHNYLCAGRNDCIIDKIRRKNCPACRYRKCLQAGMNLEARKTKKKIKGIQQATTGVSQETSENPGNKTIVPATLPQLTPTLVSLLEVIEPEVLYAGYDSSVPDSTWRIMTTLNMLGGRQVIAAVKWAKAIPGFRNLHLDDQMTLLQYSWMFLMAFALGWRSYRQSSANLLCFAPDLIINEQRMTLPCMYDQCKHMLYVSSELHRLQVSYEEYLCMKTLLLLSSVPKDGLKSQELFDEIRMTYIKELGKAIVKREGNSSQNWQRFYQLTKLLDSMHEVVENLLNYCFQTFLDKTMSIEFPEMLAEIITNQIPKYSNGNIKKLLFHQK
The experiment is described as follows: (§1) Antagonistic activity against Glucocorticoid receptor in co-transfected CV-1 cell. It is filed as functional, cell-based.
As to `CC1(C)CCC[C@]2(C)c3cc4c(C(F)(F)F)cc(O)nc4cc3N[C@H]12`, the IC50 turned out to be 1400 nM.

For the compound `C[C@H]1CC[C@H]2Nc3cc4c(cc3[C@H]2C1)c(C(F)(F)F)cc(=O)n4C`, the concentration for half-maximal inhibition (IC50) is greater than 10000 nM.

For the compound `CN1c2cc3c(cc2[C@H]2CCCC[C@H]21)c(C(F)(F)F)cc(=O)n3C`, the IC50 is greater than 10000 nM.

In another experiment the target is T3, Glucocorticoid receptor (Homo sapiens) (UniProt P04150).
T3 sequence (whole entry): T2 sequence (P04150 whole entry)
The description is as §1. Type of experiment: functional, cell-based.
`CC1(C)CCC[C@]2(C)c3cc4c(C(F)(F)F)cc(O)nc4cc3N[C@H]12` registered an Efficacy of 31%.

In turn, `C[C@H]1CC[C@H]2Nc3cc4c(cc3[C@H]2C1)c(C(F)(F)F)cc(=O)n4C` showed an Efficacy of less than 20%.

For the compound `CN1c2cc3c(cc2[C@H]2CCCC[C@H]21)c(C(F)(F)F)cc(=O)n3C`, the Efficacy is less than 20%.

The next experiment has as its target T4, Estrogen receptor (Homo sapiens, UniProt Q92731+P03372). Description: (§2) Antagonistic activity against Estrogen receptor in co-transfected CV-1 cell. Type of experiment: functional, cell-based.
As to `CC1(C)CCC[C@]2(C)c3cc4c(C(F)(F)F)cc(O)nc4cc3N[C@H]12`, the Efficacy was less than 20%.

For the compound `C[C@H]1CC[C@H]2Nc3cc4c(cc3[C@H]2C1)c(C(F)(F)F)cc(=O)n4C`, the Efficacy is less than 20%.

Take `CN1c2cc3c(cc2[C@H]2CCCC[C@H]21)c(C(F)(F)F)cc(=O)n3C`: the Efficacy is less than 20%.

A further experiment addresses T4, Estrogen receptor. The description is as §2. Type of experiment: functional, cell-based.
The compound `CC1(C)CCC[C@]2(C)c3cc4c(C(F)(F)F)cc(O)nc4cc3N[C@H]12` registered an IC50 greater than 10000 nM.

Consider `C[C@H]1CC[C@H]2Nc3cc4c(cc3[C@H]2C1)c(C(F)(F)F)cc(=O)n4C`, for which the IC50 is listed as greater than 10000 nM.

`CN1c2cc3c(cc2[C@H]2CCCC[C@H]21)c(C(F)(F)F)cc(=O)n3C` registered an IC50 greater than 10000 nM.

The next experiment concerns the target T5, Mineralocorticoid receptor (Homo sapiens) (UniProt P08235).
T5 sequence (whole entry): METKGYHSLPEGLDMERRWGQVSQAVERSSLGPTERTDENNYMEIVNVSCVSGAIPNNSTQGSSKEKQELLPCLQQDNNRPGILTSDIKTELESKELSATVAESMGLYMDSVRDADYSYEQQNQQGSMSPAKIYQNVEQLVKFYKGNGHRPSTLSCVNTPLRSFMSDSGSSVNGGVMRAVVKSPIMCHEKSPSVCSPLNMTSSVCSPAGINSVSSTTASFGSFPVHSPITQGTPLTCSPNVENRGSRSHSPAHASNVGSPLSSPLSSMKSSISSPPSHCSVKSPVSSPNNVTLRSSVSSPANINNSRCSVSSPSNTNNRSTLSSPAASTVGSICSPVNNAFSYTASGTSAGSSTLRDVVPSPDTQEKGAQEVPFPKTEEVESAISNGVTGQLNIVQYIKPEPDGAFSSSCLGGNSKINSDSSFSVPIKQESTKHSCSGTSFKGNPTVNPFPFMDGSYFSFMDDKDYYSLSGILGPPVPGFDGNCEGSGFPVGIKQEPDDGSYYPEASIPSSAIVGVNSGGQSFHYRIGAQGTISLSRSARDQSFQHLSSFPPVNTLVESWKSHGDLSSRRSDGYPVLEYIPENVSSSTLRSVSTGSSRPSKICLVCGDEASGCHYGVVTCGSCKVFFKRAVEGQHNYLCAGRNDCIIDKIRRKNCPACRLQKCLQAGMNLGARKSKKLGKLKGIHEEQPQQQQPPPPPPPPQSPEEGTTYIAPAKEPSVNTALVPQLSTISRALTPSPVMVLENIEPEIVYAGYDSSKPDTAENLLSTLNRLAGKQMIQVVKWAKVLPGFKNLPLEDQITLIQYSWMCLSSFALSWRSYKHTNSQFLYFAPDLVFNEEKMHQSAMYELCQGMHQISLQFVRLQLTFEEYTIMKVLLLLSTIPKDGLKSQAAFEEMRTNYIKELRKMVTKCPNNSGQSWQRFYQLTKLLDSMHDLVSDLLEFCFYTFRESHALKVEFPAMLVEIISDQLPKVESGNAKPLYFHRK
The experiment is described as follows: Antagonistic activity against hMR in co-transfected CV-1 cell. Type of experiment: functional, cell-based.
Compound `CC1(C)CCC[C@]2(C)c3cc4c(C(F)(F)F)cc(O)nc4cc3N[C@H]12` registered an Efficacy of 77%.

In the case of `C[C@H]1CC[C@H]2Nc3cc4c(cc3[C@H]2C1)c(C(F)(F)F)cc(=O)n4C`, the Efficacy was less than 20%.

In the case of `CN1c2cc3c(cc2[C@H]2CCCC[C@H]21)c(C(F)(F)F)cc(=O)n3C`, the Efficacy was less than 20%.

As usually defined, the Ki is the dissociation constant of the complex between target and ligand, obtained from inhibition or displacement. The low end stands for a stronger hold on the target, the high end for a looser hold on the target. Broadly, the IC50 is the point on the concentration scale where inhibition reaches its midpoint.
